Where two headings read alike, the source gives them in different places.
Experiments:
[1] = molecular target: T1, mitochondrial calcium/sodium antiporter (Rattus norvegicus, UniProt Q6AXS0); assay: Inhibition of mitochondrial calcium/sodium antiporter activity in digitonin-permeabilized INS-1 cells (calcium green 5N); type: cell-based
T1 construct: endogenous in cells; host or cells: INS-1 rat insulinoma cells, digitonin-permeabilized
T1 sequence (Q6AXS0 27-585): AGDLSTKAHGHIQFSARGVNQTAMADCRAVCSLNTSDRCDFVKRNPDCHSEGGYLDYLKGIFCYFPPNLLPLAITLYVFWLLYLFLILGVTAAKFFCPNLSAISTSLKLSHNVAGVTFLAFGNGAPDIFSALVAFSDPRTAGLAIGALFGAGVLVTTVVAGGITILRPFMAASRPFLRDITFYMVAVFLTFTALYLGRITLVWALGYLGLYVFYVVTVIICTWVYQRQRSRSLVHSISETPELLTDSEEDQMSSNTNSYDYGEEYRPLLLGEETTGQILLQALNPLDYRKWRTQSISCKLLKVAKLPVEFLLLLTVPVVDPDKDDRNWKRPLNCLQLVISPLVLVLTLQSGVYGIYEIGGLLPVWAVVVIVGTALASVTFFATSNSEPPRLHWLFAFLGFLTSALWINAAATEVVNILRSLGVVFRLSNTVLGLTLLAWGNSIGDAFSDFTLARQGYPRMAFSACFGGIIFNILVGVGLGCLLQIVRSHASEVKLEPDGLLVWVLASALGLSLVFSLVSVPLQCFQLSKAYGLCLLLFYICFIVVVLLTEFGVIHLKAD
Method: INS-1 rat insulinoma cells (see Example 3) were harvested by trypsinization, washed and resuspended at 10×10^6 cells/ml in assay buffer (250 mM sucrose, 10 mM HEPES, 2.5 mM K2HPO4, 5 mM succinate, pH 7.4) containing 0.007% digitonin, 60 μM CaCl2 and 0.05 μM calcium green 5N (Molecular Probes, Inc., Eugene, OR). After a five minute calcium loading incubation, ruthenium red (1 μM; Sigma, St. Louis, MO) was added to block further calcium uptake by mitochondria. Cell suspensions were dispensed into 96-well plates (100 μl per well, 1×10^6 cells per well) and candidate agents (i.e., candidate mitochondrial calcium/sodium antiporter inhibitors) were added to some sets of triplicate wells at concentrations of 1, 10 or 100 μM, while other sets of wells provided appropriate control conditions (e.g., buffer and vehicle controls). Baseline fluorescence measurements were made using a multiwell plate fluorimeter (F-MAX™, Molecular Devices Corp., Sunnyvale, Calif.; or PolarStar , BMG Labtechnologies, Inc., Durham, N.C.) according to the manufacturer's instructions. Calcium efflux from mitochondria was then induced by adding NaCl to all wells to achieve a final concentration of 20 mM, and the rate of change in fluorescence in each well was monitored was monitored for two minutes and quantified using software included with the plate reader.

[2] = test system: rat pancreatic islet cells; assay: Insulin secretion by rat pancreatic islet cells, 5 mM or 8 mM glucose (FIG. 3); type: cell-based; conditions: various concentrations
[3] = test system: mitochondrial calcium/sodium antiporter (MCA) from beef heart mitochondria; assay: Sodium-calcium exchange in proteoliposomes reconstituted with affinity isolated MCA; type: biochemical; conditions: 100 μM calcium chloride, FIG. 8
Method: From a separate preparation of beef heart mitochondria, affinity isolation of the MCA was performed as just described, except that 1% CHAPS was substituted for 1% Triton X-100 in the initial solubilization, and following the column wash steps, retained components (including proteins bound to the affinity matrix) were eluted with 50 mM diltiazem. The column eluate containing proteins was incorporated into proteoliposomes essentially as described by Li et al (1992 J. Biol. Chem. 267: 17983-17989), using Calcium Green SN as the internal fluorescent probe (Molecular Probes, Eugene, OR), and calcium transport activity of the MCA was measured essentially as described by Li et al. (1992). Briefly, calcium chloride (100 μM) was added to a suspension of Calcium Green 5N-loaded proteoliposomes to initiate sodium-calcium exchange, which was measured as an increase in fluorescence as the calcium entered the vesicles that contained Calcium Green 5N. […] Data points in FIG. 8 represent average values at each concentration from two independent experiments.

[4] = test system: pancreatic islets of Langerhans; assay: Glucose-stimulated insulin secretion (GSIS) by isolated rat islets, insulin ELISA; type: cell-based, Sprague-Dawley rats; conditions: 1 μM compound
Method: Pancreatic islets of Langerhans were isolated from adult male Sprague-Dawley rats using a standard collagenase infusion and digestion procedure as described in Example 5. Islets were cultured at 37° C. for 1-2 days in CMRL-1066 medium supplemented with 5.5 mM glucose, 10% fetal bovine serum, 100 U/ml penicillin and 100 μg/ml streptomycin, in a humidified atmosphere containing 5% CO2. Islets were manually picked and washed in Krebs Ringer Bicarbonate buffer (KRB: 134 mM NaCl, 4.7 mM KCl, 1.2 mM KH2PO4, 1.2 mM MgSO4, 1 mM CaCl2, 10 mM NaHCO3, pH 7.4) in preparation for measurement of glucose-stimulated insulin secretion (GSIS). Aliquots of washed islets were preincubated in oxygenated KRB supplemented with 16 mM HEPES, 0.01% fetal bovine serum and 5.5 mM glucose for 60 min at 37° C. […] Cell-conditioned media samples were then collected by centrifugation and their insulin content was determined using enzyme-linked immunosorbent assay (ELISA) kits (CrystalChem or ALPCO rat insulin ELISA) according to the kit supplier's instructions. Following treatment with a preferred compound, the concentration of insulin detected in the islet-conditioned medium was at least 1.5 times the insulin concentration detected in the medium conditioned by islets that were exposed to 8 mM glucose. […]

[5] = molecular target: T2, mitochondrial Na+/Ca2+ exchanger (Rattus norvegicus, UniProt Q6AXS0); assay: Na+-induced Ca2+ release from rat heart mitochondria, Ca2+-selective electrode; type: biochemical; conditions: 20 μM compound
T2 construct: Rat heart mitochondria were isolated using a modified differential centrifugation protocol; from tissue; host or cells: rat heart mitochondria
T2 sequence (Q6AXS0 27-585): T1 sequence (Q6AXS0 27-585)
Method: (§1) Rat heart mitochondria were isolated using a modified differential centrifugation protocol essentially as described by Sordahl (Methods in Studying Cardiac Membranes (1984), pp 65-74). Experiments to assess effects on transmitochondrial membrane transport of calcium were carried out at 25° C. in a buffer consisting of 250 mM sucrose, 10 mM HEPES (pH 7.4), 5 mM Pi, 5 mM succinate, 1 μM rotenone, supplemented with 1 μM cyclosporine A to prevent interference from the Ca^2+-dependent permeability transition pore (PTP). Ca^2+ uptake and release were measured using a Ca^2+-selective electrode in a custom-constructed chamber additionally equipped for monitoring mitochondrial swelling via changes in light scattering (World Precision Instruments, Inc., Sarasota, Fla.). Alternatively, Ca^2+ fluxes were followed fluorometrically using the Calcium Green 5N™ indicator according to the supplier's recommendations (Molecular Probes, Eugene, Oreg.).
(§2) Mitochondria (0.5 mg/ml) that were energized by the presence of succinate accumulated endogenous Ca^2+ from the medium (trace calcium from water source). Additional Ca^2+ (20 μM ) was added to the reaction buffer 2-3 minutes following commencement of measurements with the calcium electrode. […] No PTP activation (swelling) was detected under experimental conditions used.

[6] = test system: INS-1 rat insulinoma cells; assay: Insulin secretion by INS-1 cells, basal or 8 mM glucose (radioimmunoassay); type: cell-based; conditions: 15, 30 or 60 minutes, FIG. 2
Method: INS-1 rat insulinoma cells were provided by Prof. Claes Wollheim, , Geneva, Switzerland, and cultured at 37° C. in a humidified […] (Gibco BRL, Gaithersburg, Md.) fetal bovine serum (Irvine Scientific, Irvine, Calif.), 2 mM […], 100 U/ml streptomycin, 10 mM HEPES, 1 mM sodium pyruvate and 50 μM β-mercaptoethanol (all reagents Sigma, St. Louis, Mo., unless otherwise noted).
INS-1 cells were seeded into 24-well plates containing RPMI media supplemented at 0.5×10^6 cells/well and cultured at 37° C., 5% CO2 for 2 days. Cells at or near confluence (0.7×10^6cells/well) were rinsed with glucose-free KRH buffer (134 mM NaCl, 4.7 mM KCl, 1.2 mM KH2PO4, 1.2 mM MgSO4, 1.0 mM CaCl2, 10 mM HEPES-ph 7.4, 25 mM NaHCO3, 0.5% BSA), then incubated in the same buffer for 1 hr at 37° C. in a humidified 5% CO2/95% air atmosphere. […] Insulin concentrations in the supernatants were measured and normalized to cell number using an insulin-specific radioimmunoassay kit (ICN Biochemicals, Irvine, Calif.) according to the manufacturer's instructions. […]

[7] = molecular target: T2, mitochondrial Na+/Ca2+ exchanger; assay: Na+-induced Ca2+ release from mitochondria, Calcium Green 5N fluorescence; type: biochemical
Method: as §1, §2

## O=C1CSC(c2ccccc2Cl)c2ccccc2N1 (stereo not drawn) [compound 23]
[1]
  IC50: < 100 µM

## O=C1CSC(c2ccccc2Cl)c2cc(Cl)ccc2N1 (stereo not drawn) [Compound No. 1, 7-chloro-5-(2-chlorophenyl)-1,5-dihydro-4,1-benzothiazepin-2-one]
[2]
  glucose stimulated insulin secretion by rat islets: enhancement
[3]
  inhibition of sodium-calcium exchange activity: inhibited in a dose-dependent fashion
[4]
  stimulation of GSIS relative to GSIS detected with 8 mM glucose: 222 (±48) %
[5]
  inhibition at 20 µM: ~50%
[5]; FIG. 4
  inhibition of Na+-induced rapid Ca2+ release: inhibited completely
[6]
  glucose stimulated insulin secretion by INS-1 cells: enhanced

## O=C(O)CN1C(=O)CSC(c2ccccc2Cl)c2cc(Cl)ccc21 (stereo not drawn) [Compound No. 2]
[7]
  concentrations at which inhibition was observed: ≥ 100 µM

## Cc1ccc(C2SCC(=O)Nc3ccc(Cl)cc32)c(C)c1 (stereo not drawn) [compound 21]
[1]
  IC50: < 100 µM

## Cc1ccccc1C1OCC(=O)Nc2ccc(Cl)cc21 (stereo not drawn) [compound 10]
[1]
  IC50: < 100 µM

## O=C1C[S+]([O-])C(c2ccccc2Cl)c2cc(Cl)ccc2N1 (stereo not drawn) [Compound No. 24]
[1]; permeabilized INS-1 cells, 20 mM NaCl-induced calcium efflux, read-out: IC50, MCA inhibition
  IC50: < 100 µM
[4]
  stimulation of GSIS relative to GSIS detected with 8 mM glucose: 178%

Source: patent publication US20020082193A1, “Inhibition of mitochondrial calcium/sodium antiporter” (priority 2000, published 2002)
